Assay results from patent US8093231B2, “Sulfonylethyl phosphorodiamidates” (Telik, Inc., priority 2004, dated 2012).
Like-named read-outs stand apart in the source and are kept apart here.

Legend:
Format in all cases: cell-based, human
[1] = tested on: DLD-1 (colorectal adenocarcinoma); experiment: Cytotoxicity/growth inhibition assay, DLD-1; settings: read-out: IC50 (DLD-1)
Procedure, shortened: (§1)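 Test compounds in DMSO (0.1–200 μM; final DMSO 0.5%) added to freshly diluted cells (3×10^3 cells/mL MX-1 and DLD-1, 6×10^3 cells/mL LNCap), triplicate wells. Cultured ~three doubling times (3 days MX-1, 4 days DLD-1/LNCap). CellTiter-Glo luminescence, 15 min room temperature; growth expressed as % of DMSO solvent control.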

[2] = tested on: MX-1 (breast carcinoma); experiment: Cytotoxicity/growth inhibition assay, MX-1; settings: read-out: IC50 (MX-1)
Procedure, shortened: as §1

[3] = tested on: LNCap (prostate carcinoma); experiment: Cytotoxicity/growth inhibition assay, LNCap; settings: read-out: IC50 (LNCap)
Procedure, shortened: as §1

[4] = DLD-1 cells, 4 days culture, CellTiter-Glo, 0.1-200 μM tested
[5] = MX-1 cells, 3 days culture, CellTiter-Glo, 0.1-200 μM tested
[6] = LNCap cells, 4 days culture, CellTiter-Glo, 0.1-200 μM tested

Compound | IC50 [1, 4] [µM] | IC50 [2, 5] [µM] | IC50 [3, 6] [µM] | IC50 ([1]; Homo sapiens, DLD-1, 96 h) [µM] | IC50 ([2]; Homo sapiens, MX1, 72 h) [µM] | IC50 ([3]; Homo sapiens, LNCaP, 96 h) [µM]
CC(C)(C(N)C(=O)O)S(=O)(=O)CCOP(=O)(N(CCCl)CCCl)N(CCCl)CCCl (stereo not drawn) [Compound 76A] | 6.6 | 23.2 | 99.7 | – | – | –
O=P(OCCS(=O)(=O)Cc1cccc(CS(=O)(=O)CCOP(=O)(N(CCCl)CCCl)N(CCCl)CCCl)c1)(N(CCCl)CCCl)N(CCCl)CCCl [Compound 14B] | 3.2 | 2.3 | 5.7 | – | – | –
O=P(OCCS(=O)(=O)c1ccccc1)(N(CCCl)CCCl)N(CCCl)CCCl [Compound 117A] | 4 | 4.1 | 16.3 | – | – | –
CC(C)S(=O)(=O)CCOP(=O)(N(CCCl)CCCl)N(CCCl)CCCl [Compound 4A] | 12.7 | 24 | 67.8 | – | – | –
N#Cc1ccc(S(=O)(=O)N[C@@H](CS(=O)(=O)CCOP(=O)(N(CCCl)CCCl)N(CCCl)CCCl)C(=O)N2CCOCC2)cc1 [Compound 100A] | 7.4 | 16.2 | 61.4 | – | – | –
Nc1cccc(CS(=O)(=O)CCOP(=O)(N(CCCl)CCCl)N(CCCl)CCCl)c1 [Compound 141A] | 12.9 | 17.3 | 45.9 | – | – | –
CC(C)CCS(=O)(=O)CCOP(=O)(N(CCCl)CCCl)N(CCCl)CCCl [Compound 9A] | 5.9 | 5.8 | 17.3 | – | – | –
O=P(OCCS(=O)(=O)c1ccc(Cl)cc1)(N(CCCl)CCCl)N(CCCl)CCCl [Compound 108A] | 2.3 | 3.3 | 6.4 | – | – | –
Cc1ccc(S(=O)(=O)CCOP(=O)(N(CCCl)CCCl)N(CCCl)CCCl)cc1 [Compound 107A] | 1.6 | 2.5 | 18.1 | – | – | –
CN1CCN(C(=O)CS(=O)(=O)CCOP(=O)(N(CCCl)CCCl)N(CCCl)CCCl)CC1 [Compound 22A] | 8.4 | 23.7 | 38.5 | – | – | –
CC(C)NC(=O)[C@H](CS(=O)(=O)CCOP(=O)(N(CCCl)CCCl)N(CCCl)CCCl)NC(=O)OC(C)(C)C [Compound 84A] | 6 | 10.6 | 29.6 | – | – | –
O=P(OCCS(=O)(=O)Cc1ccccc1Cl)(N(CCCl)CCCl)N(CCCl)CCCl [Compound 136A] | 1.7 | 2.8 | 21.4 | – | – | –
CCN(CC)C(=O)c1ccc(CS(=O)(=O)CCOP(=O)(N(CCCl)CCCl)N(CCCl)CCCl)cc1 [Compound 157A] | 2.3 | 3.1 | 29.6 | – | – | –
O=P(OCCS(=O)(=O)Cc1ccccc1CS(=O)(=O)CCOP(=O)(N(CCCl)CCCl)N(CCCl)CCCl)(N(CCCl)CCCl)N(CCCl)CCCl [Compound 13B] | 2.3 | 1.9 | 4.7 | – | – | –
CC(C)(C)OC(=O)N[C@@H](CS(=O)(=O)CCOP(=O)(N(CCCl)CCCl)N(CCCl)CCCl)C(=O)N1CCN(C(=O)c2ccco2)CC1 [Compound 85A] | 8.8 | 11.8 | 41.1 | – | – | –
CC(C)(C)OC(=O)CCNC(=O)CS(=O)(=O)CCOP(=O)(N(CCCl)CCCl)N(CCCl)CCCl [Compound 37A] | 8 | 8 | 28.9 | – | – | –
CN(C)CC(=O)Nc1cc(CS(=O)(=O)CCOP(=O)(N(CCCl)CCCl)N(CCCl)CCCl)cc(CS(=O)(=O)CCOP(=O)(N(CCCl)CCCl)N(CCCl)CCCl)c1 [Compound 20B] | 4 | 5.1 | 33.3 | – | – | –
CCCCCCCCS(=O)(=O)CCOP(=O)(N(CCCl)CCCl)N(CCCl)CCCl [Compound 12A] | 3.5 | 13.9 | 14.1 | – | – | –
NC(=O)c1ccc(CS(=O)(=O)CCOP(=O)(N(CCCl)CCCl)N(CCCl)CCCl)cc1 [Compound 162A] | 4.7 | 7.1 | 55.1 | – | – | –
C=CS(=O)(=O)CCOP(=O)(N(CCCl)CCCl)N(CCCl)CCCl [Compound 2A] | 1.4 | 3.2 | 105 | – | – | –
O=C(O)CS(=O)(=O)CCOP(=O)(N(CCCl)CCCl)N(CCCl)CCCl [Compound 14A, 2-[[2-[[bis[bis(2-chloroethyl)amino]phosphinyl]oxy]-ethyl]sulfonyl]acetic acid] | – | – | – | 17.6 | 62.2 | ≥ 200
CC(C)(C)OC(=O)N[C@@H](CS(=O)(=O)CCOP(=O)(N(CCCl)CCCl)N(CCCl)CCCl)C(=O)N1CCOCC1 [Compound 83A] | 6.7 | 12.9 | 27.8 | – | – | –
O=C(CS(=O)(=O)CCOP(=O)(N(CCCl)CCCl)N(CCCl)CCCl)NC(Cc1ccccc1)C(=O)O (stereo not drawn) [Compound 26A] | 8.4 | 29.4 | 76.8 | – | – | –
O=C(NCCO)c1ccc(CS(=O)(=O)CCOP(=O)(N(CCCl)CCCl)N(CCCl)CCCl)cc1 [Compound 160A] | 13.9 | 33.2 | 104 | – | – | –
